The values that follow come from patent US9266878B2, “Phosphatidylinositol 3-kinase inhibitors” (Gilead Calistoga LLC, priority 2012, dated 2016).

Where only a bound is given, the exact number is not on record here.

Holding throughout (assay): Enzymatic activity of PI3K isoforms, TR-FRET assay (PIP3 formation)
Common to all, as to assay type: biochemical
(In TR-FRET formats the signal depends on donor and acceptor labels being close together.)

One assay addresses PI3Kβ (Homo sapiens (Human), UniProt P42338). The method in brief: (§1)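 Recombinant heterodimeric class I PI3K enzymes were assayed by TR-FRET. PIP3 product displaces fluorescently labelled PIP3 from the GRP-1 PH domain, lowering the signal; IC50 values are given in nM.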
For another assay, the target named is PI3Kγ (Homo sapiens (Human), UniProt P48736). Put shortly: as §1
The next assay concerns the target PI3Kδ (Homo sapiens (Human), UniProt O00329). Conditions: bound given in nM. Put shortly: (§2)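 Heterodimeric recombinant class I PI3K; PIP3 product displaces labeled PIP3 from GRP-1 PH domain, lowering TR-FRET. Reaction 30 min at 25° C, stopped with 10 mM EDTA, 10 nM labeled-PIP3, 35 nM Eu-GRP-1. Read Ex 340 nm, Em 615/665 nm; IC50 in nM.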
Another assay has as its target PI3Kα (Homo sapiens (Human), UniProt P42336). The conditions noted are these: bound given in uM. The method in brief: as §2

Sequence of PI3Kβ (P42338 whole entry, the tested form may be a part): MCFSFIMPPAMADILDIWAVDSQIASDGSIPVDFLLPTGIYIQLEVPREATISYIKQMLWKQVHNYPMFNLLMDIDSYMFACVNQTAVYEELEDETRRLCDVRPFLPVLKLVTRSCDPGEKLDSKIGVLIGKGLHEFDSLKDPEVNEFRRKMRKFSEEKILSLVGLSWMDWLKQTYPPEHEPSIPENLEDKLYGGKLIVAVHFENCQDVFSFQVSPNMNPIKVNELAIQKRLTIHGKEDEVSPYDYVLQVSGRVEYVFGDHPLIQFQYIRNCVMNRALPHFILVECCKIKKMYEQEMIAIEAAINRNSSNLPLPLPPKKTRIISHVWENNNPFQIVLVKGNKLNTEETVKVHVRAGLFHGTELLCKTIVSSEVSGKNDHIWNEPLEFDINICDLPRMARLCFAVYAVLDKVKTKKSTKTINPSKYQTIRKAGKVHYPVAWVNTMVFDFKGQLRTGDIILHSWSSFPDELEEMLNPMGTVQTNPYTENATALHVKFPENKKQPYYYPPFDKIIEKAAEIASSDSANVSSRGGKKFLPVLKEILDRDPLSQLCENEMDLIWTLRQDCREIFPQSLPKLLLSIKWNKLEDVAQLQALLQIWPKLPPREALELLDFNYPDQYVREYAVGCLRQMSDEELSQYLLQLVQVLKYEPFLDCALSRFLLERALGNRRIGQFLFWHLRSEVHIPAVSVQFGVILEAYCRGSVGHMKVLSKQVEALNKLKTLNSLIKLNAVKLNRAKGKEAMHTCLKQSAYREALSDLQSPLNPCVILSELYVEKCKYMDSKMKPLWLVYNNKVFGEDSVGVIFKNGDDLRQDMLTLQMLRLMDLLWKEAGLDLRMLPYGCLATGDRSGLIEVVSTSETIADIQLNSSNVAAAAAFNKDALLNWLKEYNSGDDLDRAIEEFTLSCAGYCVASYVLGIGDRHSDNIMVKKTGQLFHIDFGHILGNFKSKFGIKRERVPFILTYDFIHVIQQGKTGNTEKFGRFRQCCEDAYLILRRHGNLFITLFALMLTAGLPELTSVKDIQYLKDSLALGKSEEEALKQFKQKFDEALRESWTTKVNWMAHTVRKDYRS
Sequence of PI3Kβ (P27986 whole entry partner, the tested form may be a part): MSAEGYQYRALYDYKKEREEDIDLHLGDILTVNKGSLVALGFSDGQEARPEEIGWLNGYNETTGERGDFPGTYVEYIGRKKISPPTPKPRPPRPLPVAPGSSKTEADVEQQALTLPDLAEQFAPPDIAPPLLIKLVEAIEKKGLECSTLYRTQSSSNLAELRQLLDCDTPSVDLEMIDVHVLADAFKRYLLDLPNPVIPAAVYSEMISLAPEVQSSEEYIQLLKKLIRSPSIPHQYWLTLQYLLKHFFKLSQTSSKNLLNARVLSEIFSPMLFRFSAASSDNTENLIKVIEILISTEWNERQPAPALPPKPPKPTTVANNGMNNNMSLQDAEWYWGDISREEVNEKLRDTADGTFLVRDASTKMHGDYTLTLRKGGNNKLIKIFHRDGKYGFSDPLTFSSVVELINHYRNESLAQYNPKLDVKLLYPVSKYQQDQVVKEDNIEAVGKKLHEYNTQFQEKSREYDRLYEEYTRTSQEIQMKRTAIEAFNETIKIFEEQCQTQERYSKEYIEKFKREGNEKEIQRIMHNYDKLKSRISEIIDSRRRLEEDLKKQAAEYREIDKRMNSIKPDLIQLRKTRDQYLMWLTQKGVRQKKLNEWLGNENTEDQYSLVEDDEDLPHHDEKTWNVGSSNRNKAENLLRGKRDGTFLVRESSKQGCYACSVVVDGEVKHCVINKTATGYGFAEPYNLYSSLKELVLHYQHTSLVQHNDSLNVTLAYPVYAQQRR
Sequence of PI3Kα (P42336 whole entry): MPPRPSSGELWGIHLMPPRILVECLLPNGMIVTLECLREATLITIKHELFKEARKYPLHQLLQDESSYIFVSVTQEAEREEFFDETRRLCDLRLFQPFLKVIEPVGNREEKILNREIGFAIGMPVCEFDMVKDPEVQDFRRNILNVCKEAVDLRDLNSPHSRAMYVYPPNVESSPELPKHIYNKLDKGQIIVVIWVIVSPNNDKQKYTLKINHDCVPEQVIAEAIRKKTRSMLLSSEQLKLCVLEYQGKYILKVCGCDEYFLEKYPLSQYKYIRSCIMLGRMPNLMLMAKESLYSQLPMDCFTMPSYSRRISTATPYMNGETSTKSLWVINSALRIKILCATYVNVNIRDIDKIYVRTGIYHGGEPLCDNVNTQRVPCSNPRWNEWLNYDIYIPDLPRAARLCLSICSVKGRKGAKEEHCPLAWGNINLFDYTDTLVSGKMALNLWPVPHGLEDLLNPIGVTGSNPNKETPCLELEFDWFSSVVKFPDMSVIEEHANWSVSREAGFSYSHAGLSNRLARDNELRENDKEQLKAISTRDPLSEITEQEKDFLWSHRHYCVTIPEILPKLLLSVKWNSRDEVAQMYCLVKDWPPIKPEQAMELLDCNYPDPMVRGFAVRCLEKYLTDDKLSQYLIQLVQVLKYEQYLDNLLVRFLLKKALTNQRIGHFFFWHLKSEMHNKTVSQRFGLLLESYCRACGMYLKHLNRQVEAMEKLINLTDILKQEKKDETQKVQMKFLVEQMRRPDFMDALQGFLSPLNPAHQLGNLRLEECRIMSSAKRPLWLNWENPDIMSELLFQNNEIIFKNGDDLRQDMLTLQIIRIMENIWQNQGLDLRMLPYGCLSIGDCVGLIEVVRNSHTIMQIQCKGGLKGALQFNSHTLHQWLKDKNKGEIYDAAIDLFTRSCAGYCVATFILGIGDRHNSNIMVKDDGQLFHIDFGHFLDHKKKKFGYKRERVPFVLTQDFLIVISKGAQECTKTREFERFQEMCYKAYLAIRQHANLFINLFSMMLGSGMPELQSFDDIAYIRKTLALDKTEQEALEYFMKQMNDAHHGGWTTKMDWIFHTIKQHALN
Sequence of PI3Kα (P27986 whole entry partner): as the sequence (P27986 whole entry partner, the tested form may be a part) above
Sequence of PI3Kδ (O00329 whole entry, the tested form may be a part): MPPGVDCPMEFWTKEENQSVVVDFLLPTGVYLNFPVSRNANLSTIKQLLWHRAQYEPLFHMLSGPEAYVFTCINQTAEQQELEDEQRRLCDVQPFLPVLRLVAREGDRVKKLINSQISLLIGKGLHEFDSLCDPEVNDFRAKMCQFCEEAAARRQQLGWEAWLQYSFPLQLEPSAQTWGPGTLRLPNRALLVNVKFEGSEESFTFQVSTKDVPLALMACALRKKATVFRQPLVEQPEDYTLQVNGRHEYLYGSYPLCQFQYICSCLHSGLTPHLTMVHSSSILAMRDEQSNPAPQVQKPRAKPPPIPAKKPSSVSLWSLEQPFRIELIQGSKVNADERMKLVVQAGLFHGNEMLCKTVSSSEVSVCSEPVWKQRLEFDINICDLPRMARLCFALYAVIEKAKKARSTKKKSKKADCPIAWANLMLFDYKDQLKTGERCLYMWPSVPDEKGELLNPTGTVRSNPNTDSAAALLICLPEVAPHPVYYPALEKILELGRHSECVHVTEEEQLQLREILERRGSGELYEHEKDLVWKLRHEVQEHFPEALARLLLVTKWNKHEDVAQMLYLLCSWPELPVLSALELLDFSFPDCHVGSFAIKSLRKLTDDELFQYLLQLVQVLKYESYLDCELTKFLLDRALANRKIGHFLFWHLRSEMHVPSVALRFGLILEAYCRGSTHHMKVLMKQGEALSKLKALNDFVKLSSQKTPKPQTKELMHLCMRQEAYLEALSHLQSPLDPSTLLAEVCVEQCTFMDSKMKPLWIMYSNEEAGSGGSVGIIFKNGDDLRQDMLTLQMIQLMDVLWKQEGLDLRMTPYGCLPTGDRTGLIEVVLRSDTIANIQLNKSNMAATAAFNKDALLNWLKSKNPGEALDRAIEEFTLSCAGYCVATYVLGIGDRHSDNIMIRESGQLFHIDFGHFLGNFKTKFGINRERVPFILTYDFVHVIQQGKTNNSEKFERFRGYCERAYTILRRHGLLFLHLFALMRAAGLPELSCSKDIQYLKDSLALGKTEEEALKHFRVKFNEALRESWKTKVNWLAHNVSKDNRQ
Sequence of PI3Kδ (P27986 whole entry partner, the tested form may be a part): as the sequence (P27986 whole entry partner, the tested form may be a part) above

As a reminder, the IC50 is the concentration at which inhibition is half-maximal. Low readings indicate higher potency, high ones lower potency. With `C[C@H](Nc1ncnc(N)c1C#Cc1cc(C(=O)O)ccn1)c1nc2cccc(Cl)c2c(=O)n1-c1ccccc1` [Compound 160a, (S)-2-((4-amino-6-((1-(5-chloro-4-oxo-3-phenyl-3,4-dihydroquinazolin-2-yl)ethyl)amino)pyrimidin-5-yl)ethynyl)isonicotinic acid], the IC50 against PI3Kβ (bound given in nM) is < 100 nM; on PI3Kγ (bound given in uM) it was > 1 µM; at PI3Kδ, < 100 nM.

Turning to `C[C@H](Nc1ncnc(N)c1C#Cc1ccccc1)c1nc2cccc(Cl)c2c(=O)n1-c1ccccc1` [Compound 51a, (S)-2-(1-(6-amino-5-(phenylethynyl)pyrimidin-4-ylamino)ethyl)-5-chloro-3-phenylquinazolin-4(3H)-one], the figures for the 50% inhibitory concentration (IC50) at PI3Kβ (bound given in nM), at PI3Kγ (bound given in nM) and on PI3Kδ were < 100 nM, < 0.1 µM and < 100 nM, respectively.

In the case of `C[C@H](Nc1nc(N)nc(N)c1C#Cc1ccc(F)cn1)c1nc2cccc(Cl)c2c(=O)n1-c1cc(F)cc(F)c1` [Compound 78a, (S)-5-chloro-2-(1-((2,6-diamino-5-((5-fluoropyridin-2-yl)ethynyl)pyrimidin-4-yl)amino)ethyl)-3-(3,5-difluorophenyl)quinazolin-4(3H)-one], the IC50 on PI3Kβ (bound given in uM) is > 1000 nM; on PI3Kδ it was < 100 nM; against PI3Kα, > 1 µM.

As for `C[C@H](Nc1nc(N)nc(N)c1C#Cc1ccc(F)cn1)c1nc2cccc(Cl)c2c(=O)n1-c1ccccc1` [Compound 83a, (S)-5-chloro-2-(1-((2,6-diamino-5-((5-fluoropyridin-2-yl)ethynyl)pyrimidin-4-yl)amino)ethyl)-3-phenylquinazolin-4(3H)-one], the IC50 is > 1000 nM on PI3Kβ (bound given in uM), < 100 nM on PI3Kδ and > 1 µM against PI3Kα.

As to `C[C@H](Nc1ncnc(N)c1C#Cc1cc(CO)ccn1)c1nc2cccc(Cl)c2c(=O)n1-c1ccccc1` [Compound 154a, (S)-2-(1-((6-amino-5-((4-(hydroxymethyl)pyridin-2-yl)ethynyl)pyrimidin-4-yl)amino)ethyl)-5-chloro-3-phenylquinazolin-4(3H)-one], the results for the IC50 at PI3Kβ (bound given in nM), against PI3Kγ (bound given in nM) and against PI3Kδ were < 100 nM, < 0.1 µM and < 100 nM, respectively.

Turning to `C[C@H](Nc1ncnc(N)c1C#Cc1ccc(F)cn1)c1nc2cccc(C(F)F)c2c(=O)n1-c1ccccc1` [Compound 67a, (S)-2-(1-((6-amino-5-((5-fluoropyridin-2-yl)ethynyl)pyrimidin-4-yl)amino)ethyl)-5-(difluoromethyl)-3-phenylquinazolin-4(3H)-one], the IC50 on PI3Kβ (bound given in uM) was > 1000 nM; against PI3Kδ, < 100 nM; on PI3Kα, > 1 µM.

In the case of `Cc1ccc(C#Cc2c(N)ncnc2N[C@@H](C)c2nc3cccc(Cl)c3c(=O)n2-c2cc(F)cc(F)c2)nc1` [Compound 164a, (S)-2-(1-((6-amino-5-((5-methylpyridin-2-yl)ethynyl)pyrimidin-4-yl)amino)ethyl)-5-chloro-3-(3,5-difluorophenyl)quinazolin-4(3H)-one], the IC50 against PI3Kβ (bound given in uM) is > 1000 nM; on PI3Kδ it was < 100 nM; on PI3Kα it was > 1 µM.

With `CC(O)c1cccc(C#Cc2c(N)ncnc2N[C@@H](C)c2nc3cccc(Cl)c3c(=O)n2-c2ccccc2)n1` (stereo partly drawn) [Compound 157a, 2-((1S)-1-((6-amino-5-((6-(1-hydroxyethyl)pyridin-2-yl)ethynyl)pyrimidin-4-yl)amino)ethyl)-5-chloro-3-phenylquinazolin-4(3H)-one], the IC50 against PI3Kβ (bound given in nM) was < 100 nM; at PI3Kδ, < 100 nM; against PI3Kα it was > 1 µM.

As to `Cc1cccnc1C#Cc1c(N)ncnc1N[C@@H](C)c1nc2cccc(Cl)c2c(=O)n1-c1ccccc1` [Compound 143a, (S)-2-(1-((6-amino-5-((3-methylpyridin-2-yl)ethynyl)pyrimidin-4-yl)amino)ethyl)-5-chloro-3-phenylquinazolin-4(3H)-one], the IC50 is < 100 nM against PI3Kβ (bound given in nM), < 100 nM against PI3Kδ and > 1 µM on PI3Kα.

Regarding `Cc1cccc(C#Cc2c(N)ncnc2N[C@@H](C)c2nc3cccc(Cl)c3c(=O)n2-c2ccccc2)n1` [Compound 141a, (S)-2-(1-((6-amino-5-((6-methylpyridin-2-yl)ethynyl)pyrimidin-4-yl)amino)ethyl)-5-chloro-3-phenylquinazolin-4(3H)-one], the IC50 against PI3Kβ (bound given in nM) was < 100 nM; against PI3Kδ it was < 100 nM; on PI3Kα, > 1 µM.

With `COC(=O)c1ccc(C#Cc2c(N)ncnc2N[C@@H](C)c2nc3cccc(Cl)c3c(=O)n2-c2ccccc2)nc1` [Compound 3a, (S)-methyl 6-((4-amino-6-(1-(5-chloro-4-oxo-3-phenyl-3,4-dihydroquinazolin-2-yl)ethylamino)pyrimidin-5-yl)ethynyl)nicotinate], the IC50 at PI3Kβ (bound given in uM) was > 1000 nM; against PI3Kδ, < 100 nM; on PI3Kα it was > 1 µM.

Turning to `C[C@H](Nc1ncnc(N)c1C#Cc1ccc2nc(N)sc2c1)c1nc2cccc(Cl)c2c(=O)n1-c1ccccc1` [Compound 46a, (S)-2-(1-(6-amino-5-((2-aminobenzo [d]thiazol-6-yl)ethynyl)pyrimidin-4-ylamino)ethyl)-5-chloro-3-phenylquinazolin-4(3H)-one], the IC50 on PI3Kβ (bound given in nM) was < 100 nM; against PI3Kγ (bound given in nM), < 0.1 µM; against PI3Kδ it was < 100 nM.

As for `C[C@H](Nc1ncnc(N)c1C#Cc1ccc(C(N)=O)cn1)c1nc2cccc(Cl)c2c(=O)n1-c1cc(F)cc(F)c1` [Compound 136a, (S)-6-((4-amino-6-((1-(5-chloro-3-(3,5-difluorophenyl)-4-oxo-3,4-dihydroquinazolin-2-yl)ethyl)amino)pyrimidin-5-yl)ethynyl)nicotinamide], the IC50 at PI3Kβ (bound given in uM) is > 1000 nM; against PI3Kδ, < 100 nM; at PI3Kα, > 1 µM.

`C[C@H](Nc1ncnc(N)c1C#Cc1cnccn1)c1nc2cccc(Cl)c2c(=O)n1-c1ccccc1` [Compound 16a, (S)-2-(1-(6-amino-5-(pyrazin-2-ylethynyl)pyrimidin-4-ylamino)ethyl)-5-chloro-3-phenylquinazolin-4(3H)-one]: the figures for the IC50 on PI3Kβ (bound given in nM), against PI3Kδ and against PI3Kα were < 100 nM, < 100 nM and > 1 µM, respectively.

For the molecule `C[C@H](Nc1ncnc(N)c1C#Cc1ncccc1C(F)(F)F)c1nc2cccc(Cl)c2c(=O)n1-c1ccccc1` [Compound 142a, (S)-2-(1-((6-amino-5-((3-(trifluoromethyl)pyridin-2-yl)ethynyl)pyrimidin-4-yl)amino)ethyl)-5-chloro-3-phenylquinazolin-4(3H)-one], the IC50 on PI3Kβ (bound given in nM) is < 100 nM; on PI3Kδ, < 100 nM; against PI3Kα it was > 1 µM.

With `C[C@H](Nc1ncnc(N)c1C#Cc1cncnc1)c1nc2cccc(Cl)c2c(=O)n1-c1ccccc1` [Compound 42a, (S)-2-(1-(6-amino-5-(pyrimidin-5-ylethynyl)pyrimidin-4-ylamino)ethyl)-5-chloro-3-phenylquinazolin-4(3H)-one], the figures for the IC50 against PI3Kβ (bound given in uM), against PI3Kδ and at PI3Kα were > 1000 nM, < 100 nM and > 1 µM, respectively.

With `C[C@H](Nc1ncnc(N)c1C#Cc1ccc(F)cn1)c1nc2c(F)ccc(Cl)c2c(=O)n1-c1cc(F)cc(F)c1` [Compound 84a, (S)-2-(1-((6-amino-5-((5-fluoropyridin-2-yl)ethynyl)pyrimidin-4-yl)amino)ethyl)-5-chloro-3-(3,5-difluorophenyl)-8-fluoroquinazolin-4(3H)-one], the IC50 at PI3Kβ (bound given in uM) is > 1000 nM; against PI3Kδ it was < 100 nM; at PI3Kα, > 1 µM.
